Source: patent US11278521B2, “GAS5 binding compounds, formulations, and uses thereof” (UNIVERSITY OF SOUTH FLORIDA, priority 2015, dated 2022)
“Also recorded” adds a separate entry of the source.

Tests used:
GAS5 [1] = experiment: screen of γ-AApeptide one-bead-one-compound combinatorial library with fluorescein tagged GAS5 oligonucleotide probe and validation; type: binding; settings: positive beads from screen of 160,000 molecules, tRNA as control
Source text: The interaction between UPF1 and GAS5 was disrupted using a γ-AApeptide based one-bead-one-compound (OBOC) combinatorial library (Wu H, Li Y, Bai G, Niu Y, Qiao Q, Tipton J D, Cao C, Cai J. gamma-AApeptide-based small-molecule ligands that inhibit Abeta aggregation. Chemical communications. 2014; 50(40):5206-8. doi: 10.1039/c3cc46685j. PubMed PMID: 24158240). The γ-AApeptide is a peptidomimetic with side chains for chemical diversity and are resistant to proteolytic cleavage. To screen the compound library, a probe that contained a fluorescein tagged oligonucleotide was synthesized. The probe spanned 30 nucleotides on either side of the UAA sequences on GAS5 (FIG. 2) The fluorescein was attached to the 5′end (beginning of oligonucleotide probe sequence). The nucleotide sequence within the GAS5 IncRNA that the oligonucleotide probe binds to can be about 100% identical to […] […]
The length of oligonucleotide was required to maintain stem loop structure to specifically bind to GAS5. […] The compound having a structure according to Formula 3 was determined to have a chemical formula of C68H92N10O9S, a mass of about 1224.6769, and a molecular weight of 1225.6050. The compound having a structure according to Formula 14 was determined to have a chemical formula of C63H85N9O13S, a mass of about 1207.5988, and a molecular weight of 1208.4830.

DM adipocytes = experiment: cell viability assay after treatment with compound; type: cell-based; settings: DM adipocytes treated with compound, cell viability assay (FIG. 3B)
GAS5 [2] = experiment: GAS5 levels in DM adipocytes by SYBR Green qPCR; type: cell-based; settings: 20 nM, about 24 hours
Procedure: Strategy for compound design: GAS5 transcript may be targeted to faster turnover by nonsense mediated RNA decay. GAS5 transcript has a premature termination codon which renders greater susceptibility for nonsense mediated RNA decay. […] GAS5 and UPF1 levels were measured in NDM and DM adipocytes.
DM adipocytes were treated with G5-1397 (20 nM) for about 24 hours. GAS5 levels were measured using SYBR Green qPCR.

GAS5 transcript = experiment: RNA-EMSA (REMSA) with biotin-labeled in vitro transcribed GAS5; type: binding; settings: 0.1 nM biotin-labeled GAS5, 10 nM compound, 10U yeast tRNA, 20 min at room temperature
Procedure: RNA-EMSA was performed as previously described (see e.g. Apostolatos, H., Apostolatos, A., Vickers, T., Watson, J. E., Song, S., Vale, F., Cooper, D. R., Sanchez-Ramos, J., and Patel, N. A. (2010) Vitamin A metabolite, all-trans-retinoic acid, mediates alternative splicing of protein kinase C deltaVIII (PKCdeltaVIII) isoform via splicing factor SC35. J Biol Chem 285, 25987-25995 and Patel, R. S., Carter, G., Cooper, D. R., Apostolatos, H., and Patel, N. A. (2014) Transformer 2beta homolog (Drosophila) (TRA2B) regulates protein kinase C deltal (PKCdeltal) splice variant expression during 3T3L1 preadipocyte cell cycle. J Biol Chem 289, 31662-31672.
Briefly, GAS5 was cloned in TOPO vector which has the T7 promoter. In vitro transcription assay was performed with biotin-label using RiboScribe kit using T7 RNA polymerase at 37° C. for 2 h in the presence of nucleotides, RNase inhibitor, and 5× transcription buffer. 0.1 nM of transcribed, biotin-labeled GAS5 was incubated with 10 nM G5-1397 in presence of 10U yeast tRNA and 10 units of RNase inhibitor in a final volume of 10 μl of RNA shift buffer for 20 min at room temperature and detected using Biotin Chromogenic Detection kit (ThermoFisher). […] Using the same assay, compounds according to Formulas 4-19 were also observed to bind GAS5 long non-coding RNA.

Structure (SMILES)	ability to bind GAS5 (GAS5 [1])	cell toxicity (DM adipocytes)	GAS5 levels (GAS5 [2])	binding to GAS5 transcript (GAS5 transcript)
C[C@H]1CN(C(=O)CC2CC2)CC(=O)N[C@@H](CCC(=O)O)CN(C(=O)CCC2CCCCC2)CC(=O)N[C@@H](Cc2ccccc2)CN(CC(N)=O)C(=O)CCSCc2ccc(cc2)C(=O)N[C@@H](Cc2ccccc2)CN(C(=O)CCC(=O)O)CC(=O)N1 [Formula 14]	able to bind GAS5	–	–	–
CC(C)C[C@H]1CN(C(=O)CC2CC2)CC(=O)N[C@@H](CCCCN)CN(C(=O)CCc2ccccc2)CC(=O)N[C@@H](Cc2ccccc2)CN(CC(N)=O)C(=O)CCSCc2ccc(cc2)C(=O)N[C@@H](Cc2ccccc2)CN(C(=O)CC2CC2)CC(=O)N1 [Formula G5-1397]	able to bind GAS5	without causing cell toxicity	substantially increases GAS5 levels	bound to GAS5 transcript; also recorded: GAS5 transcript binding
